Laboratory results from the NIST ThermoML archive (doi:10.1021/je201354k).
± gives the expanded uncertainty stated by the source.

What was measured:
[1] = Molar enthalpy of transition or fusion; conditions: Crystal; DSC
[2] = Crystal; DTA

With N[C@@H](Cc1ccccc1)C(=O)O [L-phenylalanine] the “Molar enthalpy of transition or fusion” value [1] was 4.41 ± 0.136 kcal/mol and the Triple point temperature [2] was 556.15 ± 0.5 K.
